Source: patent US8895571B2, “Isoindolinone and pyrrolopyridinone derivatives as Akt inhibitors” (Incyte Corporation, priority 2011, dated 2014)

Key:
Type in all cases: biochemical
[1] = target: T1, Full length Akt1 (Homo sapiens, UniProt P31749); experiment: In vitro Akt kinase enzymatic assay (HTRF), Akt1; conditions: 0.4 nM Akt1, substrate solution with 5 mM ATP, 25° C. 1 hr
T1 construct: Full length Akt1 (cat #P2999); purchased PerkinElmer P2999
Method: (§1) Compounds herein were tested for inhibitory activity of Akt targets according to the following in vitro assay. Full length Akt1 (cat #P2999), Akt2 (cat #PV3184), Akt3 (cat #PV3185), peptide substrate, Ulight-Crosstide (cat #TRF0106-M), Ultra-Europium anti-phospho-Crosstide (cat #TRF-0202-M), and 10×LANCE detection buffer (cat #CR97-100) were purchased from PerkinElmer. In general, assay buffer conditions were chosen based on obtaining optimal enzymatic and linear activities. The assay buffer contains 50 mM HEPES, 10 mM MgCl2, 5 mM DTT, 0.005% Tween20 at pH 7.8. Compound stock (0.001 mM) was prepared in DMSO. The compound plate was prepared by 3-fold and 11-point serial dilutions. 0.5 μL of the compound in DMSO was transferred from the compound plate to the assay plate. Enzyme solution (0.4 nM of Akt1, 0.6 nM of Akt2 or 0.6 nM of Akt3) was prepared in the assay buffer. Note that the enzyme concentration given is based on the given stock concentration reported by the vendor. 0.1 μM substrate solution was prepared in the assay buffer with addition of 5 mM ATP. 10 μL of the enzyme solution was added to the assay plate and then 10 μL of substrate solution was added to the assay plate. The plate was protected from light and the reaction was incubated at 25° C. for 1 hr. The reaction was stopped by adding 10 μL of a solution containing 30 mM EDTA, and 3 nM Ultra Europium anti-phospho Crosstide in 1× detection buffer. The plate was incubated for 15-30 min at room temperature and HTRF (homogenous time resolved fluorescence) was measured on a plate reader. Percentage of inhibition was calculated for each concentration and IC50 value was generated from curve fitting. See Table 8 for data related to compounds of the examples.

[2] = target: T2, Full length Akt2 (Homo sapiens, UniProt P31751); experiment: In vitro Akt kinase enzymatic assay (HTRF), Akt2; conditions: 0.6 nM Akt2, substrate solution with 5 mM ATP, 25° C. 1 hr
T2 construct: Full length Akt1 (cat #P2999), Akt2 (cat #PV3184); purchased PerkinElmer PV3184
Method: as §1

[3] = target: T3, Full length Akt3 (Homo sapiens, UniProt Q9Y243); experiment: In vitro Akt kinase enzymatic assay (HTRF), Akt3; conditions: 0.6 nM Akt3, substrate solution with 5 mM ATP, 25° C. 1 hr
T3 construct: Full length Akt1 (cat #P2999), Akt2 (cat #PV3184), Akt3 (cat #PV3185); purchased PerkinElmer PV3185
Method: as §1

[4] = target: T4, Full length PKA (Homo sapiens, UniProt P17612); experiment: PKA in vitro enzymatic assay (HTRF); conditions: 0.035 nM enzyme solution, substrate solution with 5 mM ATP, 25° C. 1 hr
T4 construct: Full length PKA (cat #P2912); purchased Invitrogen P2912
Method: Full length PKA (cat #P2912), peptide substrate, fluorescein CREBtide peptide (cat #PV3508), Tb-Crebtide p-S133 Ab (cat #PV3566), and Lanthascreen TR-FRET Dilution Buffer stored (part # PV3574) were purchased from Invitrogen. In general, assay buffer conditions were chosen based on obtaining optimal and linear enzymatic activities. The assay buffer contains 50 mM HEPES, 10 mM MgCl2, 5 mM DTT, 0.005% Tween20 at pH 7.8. Compound stock (0.001 mM) was prepared in DMSO. The compound plate was prepared by 3-fold and 11-point serial dilutions. 0.5 μL of the compound in DMSO was transferred from the compound plate to the assay plate. 0.035 nM enzyme solution was prepared in the assay buffer. Note that the enzyme concentration given is based on the given stock concentration reported by the vendor. 0.1 μM substrate solution was prepared in the assay buffer with addition of 5 mM ATP. 10 μL of the enzyme solution was added to the assay plate and then 10 μL of substrate solution was added to the assay plate. The plate was protected from light and the reaction was incubated at 25° C. for 1 hr. The reaction was stopped by adding 10 μL of a solution containing 30 mM EDTA, and 1.5 nM Tb-Crebtide p-S133 Ab in 1× detection buffer. The plate was incubated for 15-30 min at room temperature and HTRF (homogenous time resolved fluorescence) was measured on a plate reader. Percentage of inhibition was calculated for each concentration and IC50 value was generated from curve fitting. See Table 8 for data related to compounds of the examples.

T3 sequence (Q9Y243 whole entry): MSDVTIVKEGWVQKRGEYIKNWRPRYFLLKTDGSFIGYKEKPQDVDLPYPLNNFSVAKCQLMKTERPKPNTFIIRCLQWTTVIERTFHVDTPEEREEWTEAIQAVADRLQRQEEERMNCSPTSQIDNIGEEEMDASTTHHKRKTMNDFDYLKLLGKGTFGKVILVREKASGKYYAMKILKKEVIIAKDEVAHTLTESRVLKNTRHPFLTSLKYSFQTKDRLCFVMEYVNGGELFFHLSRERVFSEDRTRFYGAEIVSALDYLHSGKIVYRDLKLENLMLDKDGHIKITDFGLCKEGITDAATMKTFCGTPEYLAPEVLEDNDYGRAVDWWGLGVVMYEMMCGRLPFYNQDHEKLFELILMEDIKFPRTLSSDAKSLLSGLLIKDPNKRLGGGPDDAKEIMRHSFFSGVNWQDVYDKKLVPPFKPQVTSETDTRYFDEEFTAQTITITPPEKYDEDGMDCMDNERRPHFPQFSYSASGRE
T1 sequence (P31749 whole entry): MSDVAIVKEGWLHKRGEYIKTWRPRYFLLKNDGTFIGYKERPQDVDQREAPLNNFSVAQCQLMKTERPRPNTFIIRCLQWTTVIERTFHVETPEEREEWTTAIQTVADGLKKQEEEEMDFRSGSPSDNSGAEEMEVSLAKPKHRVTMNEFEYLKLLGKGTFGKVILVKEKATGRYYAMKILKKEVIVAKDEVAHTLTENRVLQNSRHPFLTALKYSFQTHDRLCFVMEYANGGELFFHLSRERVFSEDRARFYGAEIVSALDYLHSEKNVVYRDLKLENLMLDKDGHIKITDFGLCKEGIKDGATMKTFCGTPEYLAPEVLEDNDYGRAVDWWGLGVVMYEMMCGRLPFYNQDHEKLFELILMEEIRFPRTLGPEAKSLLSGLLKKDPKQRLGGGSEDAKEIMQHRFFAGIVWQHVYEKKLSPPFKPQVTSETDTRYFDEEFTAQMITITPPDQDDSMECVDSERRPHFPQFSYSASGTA
T2 sequence (P31751 whole entry): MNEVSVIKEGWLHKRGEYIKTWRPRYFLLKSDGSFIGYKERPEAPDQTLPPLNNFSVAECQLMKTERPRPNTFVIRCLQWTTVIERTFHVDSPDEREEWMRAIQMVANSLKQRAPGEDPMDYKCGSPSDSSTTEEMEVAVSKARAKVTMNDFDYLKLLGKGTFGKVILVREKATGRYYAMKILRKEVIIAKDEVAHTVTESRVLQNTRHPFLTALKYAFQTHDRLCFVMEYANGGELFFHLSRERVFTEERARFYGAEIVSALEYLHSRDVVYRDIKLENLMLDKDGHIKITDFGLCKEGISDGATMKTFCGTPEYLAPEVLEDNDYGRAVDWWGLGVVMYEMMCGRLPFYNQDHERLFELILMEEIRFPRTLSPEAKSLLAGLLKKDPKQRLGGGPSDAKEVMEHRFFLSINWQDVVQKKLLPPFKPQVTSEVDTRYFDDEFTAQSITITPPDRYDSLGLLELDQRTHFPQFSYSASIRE

## COc1ccc(C(CN)N2Cc3cc(-c4ccnn4C)ccc3C2=O)cc1 (centres unmarked) [Example 120, 2-[2-amino-1-(4-methoxyphenyl)ethyl]-5-(1-methyl-1H-pyrazol-5-yl)isoindolin-1-one]
[1]
  IC50: > 5 µM
[2]
  IC50: > 5 µM
[3]
  IC50: > 5 µM
[4]
  IC50: > 5 µM

## CCSCc1cnn(C)c1-c1cc2c(cn1)C(=O)N([C@H](CN)Cc1cccc(F)c1)C2 [Example 98, 2-[(1S)-2-amino-1-(3-fluorobenzyl)ethyl]-6-[4-(ethylthiomethyl)-1-methyl-1H-pyrazol-5-yl]-1,2-dihydro-3H-pyrrolo[3,4-c]pyridin-3-one]
[1]
  IC50: 0.5 to 5 µM
[2]
  IC50: > 5 µM
[3]
  IC50: 0.5 to 5 µM
[4]
  IC50: > 5 µM

## CSCc1cnn(C)c1-c1cc2c(cn1)C(=O)N([C@H](CN)Cc1cccc(F)c1)C2 [Example 99, 2-[(1S)-2-amino-1-(3-fluorobenzyl)ethyl]-6-[4-(methylthiomethyl)-1-methyl-1H-pyrazol-5-yl]-1,2-dihydro-3H-pyrrolo[3,4-c]pyridin-3-one]
[1]
  IC50: < 0.5 µM
[2]
  IC50: 0.5 to 5 µM
[3]
  IC50: 0.5 to 5 µM
[4]
  IC50: > 5 µM

## Cn1ncc(Cl)c1-c1ccc2c(c1)CN(C(CN)c1ccccc1)C2=O (stereo in doubt) [Example 114, 2-[(1R)-2-amino-1-phenylethyl]-5-(4-chloro-1-methyl-1H-pyrazol-5-yl)isoindolin-1-one]
[1]
  IC50: < 0.5 µM
[2]
  IC50: 0.5 to 5 µM
[3]
  IC50: 0.5 to 5 µM
[4]
  IC50: > 5 µM

## Cn1ncc(Cl)c1-c1ccc2c(c1)CN([C@H](CNC1CC1)Cc1cccc(F)c1)C2=O [Example 33, 5-(4-chloro-1-methyl-1H-pyrazol-5-yl)-2-[(1S)-2-(cyclopropylamino)-1-(3-fluorobenzyl)ethyl]isoindolin-1-one]
[1]
  IC50: < 0.5 µM
[2]
  IC50: 0.5 to 5 µM
[3]
  IC50: 0.5 to 5 µM
[4]
  IC50: > 5 µM

## Cn1ncc(Cl)c1-c1ccc2c(c1)CN(C(CN)c1cccc(F)c1)C2=O (centres unmarked) [Example 123, 2-[2-amino-1-(3-fluorophenyl)ethyl]-5-(4-chloro-1-methyl-1H-pyrazol-5-yl)isoindolin-1-one]
[1]
  IC50: < 0.5 µM
[2]
  IC50: 0.5 to 5 µM
[3]
  IC50: 0.5 to 5 µM
[4]
  IC50: 0.5 to 5 µM

## Cn1ncc(-c2ccc(F)nc2)c1-c1ccc2c(c1)CN([C@H](CN)Cc1cccc(F)c1)C2=O [Example 25, 2-[(1S)-2-amino-1-(3-fluorobenzyl)ethyl]-5-[4-(6-fluoropyridin-3-yl)-1-methyl-1H-pyrazol-5-yl]isoindolin-1-one]
[1]
  IC50: > 5 µM
[2]
  IC50: > 5 µM
[3]
  IC50: > 5 µM
[4]
  IC50: > 5 µM

## Cn1ncc(-c2ccsc2)c1-c1ccc2c(c1)CN([C@H](CN)Cc1cccc(F)c1)C2=O [Example 16, 2-[(1S)-2-amino-1-(3-fluorobenzyl)ethyl]-5-[1-methyl-4-(3-thienyl)-1H-pyrazol-5-yl]isoindolin-1-one]
[1]
  IC50: 0.5 to 5 µM
[2]
  IC50: 0.5 to 5 µM
[3]
  IC50: < 0.5 µM
[4]
  IC50: > 5 µM

## Cn1ncc(-c2nccs2)c1-c1ccc2c(c1)CN([C@H](CN)Cc1cccc(F)c1)C2=O [Example 20, 2-[(1S)-2-amino-1-(3-fluorobenzyl)ethyl]-5-[1-methyl-4-(1,3-thiazol-2-yl)-1H-pyrazol-5-yl]isoindolin-1-one]
[1]
  IC50: < 0.5 µM
[2]
  IC50: 0.5 to 5 µM
[3]
  IC50: 0.5 to 5 µM
[4]
  IC50: > 5 µM

## CN1CCC(NC[C@H](Cc2cccc(F)c2)N2Cc3cc(-c4c(Cl)cnn4C)ccc3C2=O)CC1 [Example 37, 5-(4-chloro-1-methyl-1H-pyrazol-5-yl)-2-{(1S)-1-(3-fluorobenzyl)-2-[(1-methylpiperidin-4-yl)amino]ethyl}isoindolin-1-one]
[1]
  IC50: < 0.5 µM
[2]
  IC50: 0.5 to 5 µM
[3]
  IC50: 0.5 to 5 µM
[4]
  IC50: > 5 µM

## Cn1ncc(Cl)c1-c1ccc2c(c1)CN([C@H](CNC1CCC1)Cc1cccc(F)c1)C2=O [Example 34, 5-(4-chloro-1-methyl-1H-pyrazol-5-yl)-2-[(1S)-2-(cyclobutylamino)-1-(3-fluorobenzyl)ethyl]isoindolin-1-one]
[1]
  IC50: < 0.5 µM
[2]
  IC50: 0.5 to 5 µM
[3]
  IC50: 0.5 to 5 µM
[4]
  IC50: > 5 µM
